Assay results: patent US7256172B1, “Method of treatment and agents useful for same” (The University of Melbourne, priority 1998, dated 2007)
Where “and” joins values, the source holds several entries; their conditions need not be identical. Identical values can stand only once. No end group written: not given here.

Legend:
guinea-pig taenia coli = test system: guinea-pig taenia coli
Protocol: 2 cm strips of teania coil with intact Auerbach's plexus, but which had been stripped of the mucosa, were suspended in Kreb's solution under 1 g passive tension, and contracted with histamine (1 μM) to induce active tension.

monkey small bronchi = test system: monkey small bronchi
Description: The experimental details are similar to those for the mouse isolated bronchi. Briefly, approximately 2 mm long rings of small bronchi were mounted on wire hooks. In each trace, half log concentrations are not depicted for clarity.

[1] = test system: human bronchial epithelium; conditions: after amiloride
Protocol: Human airways were obtained from discarded sections of lungs of patients undergoing lobectomy operations at the Royal Melbourne Hospital, Melbourne, Australia usually for lung cancer. The dissection and set up were as described above for the mouse trachea.
(§1) After an equilibration time of 30 min, compounds for testing and drugs to elucidate the mechanism of any changes in Isc to the test compounds were added to either side of the tracheal epithelium (ie to either bath). Compounds used for increasing Isc were PGE2, adenosine 5′-triphosphate (ATP), uridine 5′-triphosphate (UTP) and the PAR1-, PAR2- and PAR4-activating peptides, SFLLRN (SEQ ID NO:1) and SLIGRL (SEQ ID NO:2) and GYPGQY (SEQ ID NO:6), respectively. These stimulants were added cumulatively with controls for any time-dependent tachyphylaxis.

[2] = test system: pig tracheal muscle strips; conditions: contracted to approximately 30% maximal with carbachol
Protocol: Pig tracheal muscle strips of approximately 2 mm×2 mm in size and with mucosa were prepared by dissecting away overlying cartilage. Strips were suspended in Krebs solution under 1 g passive tension, and contracted to approximately 30% maximal contraction with carbachol (40 μM).

human distal colon = test system: human distal colon
Protocol: Human distal colon strips obtained at bowel resection were suspended at 1 g passive isometric force and contracted with substance P (30 μM) to maintain a steady level of active tension.

mouse trachea = test system: mouse trachea
Description: Mice were killed by a lethal overdose of sodium pentobarbitone and the tracheae rapidly excised. The trachea was opened longitudinally through the ventral cartilage rings to make a fiat sheet. Each sheet of trachea was mounted between two perspex chambers so that the mucosal (luminal) and submucosal and bathed with warmed, oxygenated Krebs' solution, independently on each side. Electrodes in the chambers allowed recordings of transepithelial potential difference using an amplifier. The tissue was voltage clamped at 0 mV by passing a current from the amplifier via another set of electrodes in the chambers. The amount of current required to maintain voltage at 0 mV is defined as the short circuit current (Isc) and is conventionally used as a measure of all ionic fluxes across the preparation.
as §1

anaesthetised rat = test system: anaesthetised rat
Protocol: Male Sprague-Dawley rats (8 weeks) were anaesthetised (xylazine 10 mg/kg, ketamine 100 mg/kg and 50 mg/kg each 30 min thereafter, i.p.) and cannulae were placed in the trachea, carotid artery and jugular vein. Spontaneous breathing was stopped by an intravenous injection of pancuronium bromide (0.4 mg/kg and 0.2 mg/kg each 30 min thereafter) and rats were ventilated (tidal volume 8 ml/kg at 90 breaths/min, SAR-830 ventilator, CWE Inc., Ardmore, USA). Breath-to-breath measurement of airway resistance (RD and dynamic compliance (Cdyn) were calculated from flow and transpulmonary pressure recordings (PMS800, Mumed, London, UK). Flow was measured over the tracheal cannula (Fleisch pneumotachograph, Lausanne, Switzerland) and transpulmonary pressure was measured with a differential pressure transducer, one end being connected to the outlet of the tracheal cannula, the other to an air-filled cannula inserted in the oesophagus. A rectal probe was used to monitor body temperature. Serotonin (5-HT; 0.3 mg/kg i.v.) was administered as a bolus dose at 5 min intervals until reproducible changes in RL and Cdyn were obtained. Prior to each 5-HT challenge, lungs were hyperinflated once (by delivering twice the tidal volume) to prevent and reverse atelecasis. […]

rat bronchioles = test system: rat bronchioles
Description: The right and left main bronchi and their first order branches of specific pathogenfree (SPF) Balb/c mice (15–20 g; either sex), Hartley tricolour guinea-pigs (300–400 g; male) and Sprague-Dawley rats (200–350 g; either sex), all killed by either cervical dislocation or overdosed (i.p.) with sodium pentobarbitone, were cleared of surrounding connective tissue, nerves and blood vessels under a dissecting microscope and placed in cold, carbogenated (95% v/v O2,5% v/v CO2) Krebs solution (Kemp and Cocks, 1997). Human airway preparations (0.5–1 mm in external diameter) were dissected from lungs of cancer patients undergoing thoracotomy at The Royal Melbourne Hospital, Melbourne, Australia. The epithelium was removed from some bronchi either by mechanical abrasion of the luminal surface (guinea-pig) or by brief, gentle intraliminal flushing of the airways with Krebs containing 0.1% v/v Triton-X100 (mouse and rat). In each case, removal of the epithelium was verified histologically in 8 μm formalin-fixed, paraffin sections stained with haemotoxylin and eosin. Ring segments (approximately 2 mm long) of bronchi and bronchioles were mounted in Krebs (37° C.) on stainless steel wires (40 μm) in dual channel (5 ml) Mulvany-Halpern myographs (JP Trading, Aarhus, Denmark) to record changes in isometric force (Kemp and Cocks, 1997). After equilibration at a passive force between 0.2 g and 0.3 g, tissues were contracted to their maximum levels of active force (Fm.),) with acetylcholine (30 μM), thoroughly washed with Krebs and allowed to return to baseline. Various drugs or their vehicles were then added and 30 min later all tissues were contracted to approximately 40% Fmax with titrated concentrations of carbachol (10–500 nM). The L-type voltage-operated Ca^2+ channel inhibitor, nifedipine (0.3 μM) was added to all mouse and rat tissues after obtaining Fmax to control characteristic phasic contractile activity with carbachol.
All cumulative responses (relaxations and contractions) were normalised as percentages of the initial level of active force to carbachol. Results are presented as mean±s.e mean and pEC50 (sensitivity) values were calculated by fitting concentration-response curves to a four parameter logistic function (Kemp and Cocks, 1997) using Graphpad Prism (version 2.0). Statistical comparison of mean pEC50 and maximum response (Rmax) values were compared by two-tailed unpaired Student's t-tests or one way analysis of variance (ANOVA) with Tukey-Kramer's t-tests for multiple comparisons. P<0.05 was accepted as significant. Unless specified, all averaged data are from n>5 experiments.

[3] = test system: mice challenged with bacterial lipopolysaccharide; conditions: 2 mg/kg or 20 mg/kg intranasal before LPS
Protocol: Mice were challenged with bacterial lipopolysaccharide (LPS; 10 μg/mouse) via intranasal administration under light halothane aneasthesia.
Three hours after receiving LPS, the mice were killed via an intraperitoneal injection of sodium pentabarbitone and the lungs were canulated and lavaged with 4×0.5 ml washes of phosphate buffered saline. The total number of cells retrieved by this procedure was determined with a haemocytometer. Differential counts of individual cell types were performed on cytospin preparations of the lavage fluid, stained with the conventional May-Grunwald/Giemsa blood stain. The total number of neutrophils in each sample was then calculated from the proportion of neutrophils in the cytospin preparations, as a proportion of the total number of cells retrieved.

Q: For SFLLRN [SFLLRN—NH2], which “relaxation in presence of apamin” value (guinea-pig taenia coli; apamin (100 μM)) is on record?
A: inhibited

Q: What about the “relaxation of taenia coli” value (guinea-pig taenia coli; contracted with histamine (1 μM)) of the same substance?
A: relaxed in response to TRAP in a concentration-dependent manner

Q: What about the “effect on monkey small bronchi” value (monkey small bronchi) of the same substance?
A: smooth muscle relaxing effects

Q: And the “change in Isc” value [1]?
A: increases in Ise

Q: And the “relaxation of pig tracheal strip” value [2]?
A: slow onset, near maximal relaxation of the tissue comparable in extent to that induced by isoprenaline

Q: What about the “response of human distal colon” value (human distal colon) of the same substance?
A: relaxed in an apparently apaminin sensitive manner

Q: What does the source list for SLIGRL-NH2 [SLIGRL—NH2]?
A: increase in Isc in presence of indomethacin (mouse trachea; cyclooxygenase inhibitor indomethacin): unaffected; change in Isc (mouse trachea; luminally applied): rapid initial rise in Isc usually followed by some degree of recovery until a steady plateau was reached; inhibition of 5-HT-induced changes in airway resistance (RL) and dynamic compliance (Cdyn) (anaesthetised rat; 30 sec aerosol of 0.1 mg/ml solution): 50–70%; duration of inhibition of bronchoconstriction to 5-HT (anaesthetised rat; aerosol of 1 mg/ml): at least 45 min; inhibition of bronchoconstriction to 5-HT (anaesthetised rat; aerosol of 1 mg/ml): complete inhibition; Rmax (rat bronchioles): 67±5%; pEC50 (rat bronchioles): 5.1±0.1 and 5.1±0.01; effect on LPS-induced neutrophil infiltration into the lungs [3]: dose-dependent inhibition of the increase of neutrophil infiltration into the lungs
